{
  "source": "patent US20240253033A1",
  "about": "“MICROFLUIDIC DETECTION SYSTEM WITH ADJUSTABLE FLOW CONTROL” (priority 2022, published 2024)",
  "key": {"[1]": {"test_system": "E. coli", "procedure": "To evaluate the QolorAST performance in clinical settings, a double-blinded clinical study at the McGill University Health Center (MUHC) was performed. 47 patients suspected of urinary tract infections, admitted to MUHC emergency clinics between August 2022 to August 2023 were tested. Specimens were consented, collected from the patients and the experiments were done in microbiology labs in MUHC. Each specimen were divided in 3 to be tested in parallel in the central laboratory of the hospital (quantification, identification and MIC), in the research laboratory (quantification, identification and MIC for 2 antibiotics) and with QolorAST genotypic/phenotypic assays in microbiology lab at MUHC. The device has 24 chambers where the media/resazurin/antibiotic mixes as well as the patient samples are injected mixed. […] Therefore, reagent loading port was preloaded with media, specific concentration antibiotic and resazurin at final concentration of 0.25 mg/mL and urine was added to urine loading port. Thereafter, by pressing the pushing button the urine was mixed with the rest of solution at a volumetric ratio of 1:4 which would be the starting point for incubation and imaging of the samples. The samples were incubated at 37° C. at different timepoints starting from 0 to 60 minutes with a time interval of 10 minutes and the imaging was performed as described above."}, "[2]": {"test_system": "E. coli", "test": "Standard broth microdilution MIC on isolates from patient urine specimens", "type": "cell-based, Escherichia coli", "procedure": "For the standard testing the urine specimens were diluted 1/1000 using CamHB and both the original concentration and a 1/1000 dilution of the specimen were plated on BAP with a 1 μL calibrated loop and incubated for 18-20h at 37 C with 5% CO2. The […] concentration is then calculated for all the isolates coming from each specimen. […] At the end of the process, the inoculum quantification is checked by counted CFU from serial dilutions of the inoculum. A growth positive control (inoculum with no antibiotic), a wild type strain of E. Coli (MG1655) and E. Faecalis are also included and processed in the same way as the isolates for each experiment. Finally, each isolate is plated on BAP to control their monoculture state and to be identified by MALDI.\nSamples were tested in parallel using two methods: conventional (Matrix-assisted laser desorption/ionization-time of flight—MALDI/TOF—for bacterial identification and CLSI BMD method for AST) and QolorAST (genotypic for bacterial ID and phenotypic AST). […] Subsequently, we used the images of negative, fastidious, and not fastidious samples to establish a new training for the SVM to classify the specimens into no growth (negative) and growth (positive) classes. We implemented a detection time of 30 mins and a cutoff threshold of 0.6 to differentiate between positive and negative specimens (FIG. 34G)."}},
  "note": "Read-outs that look alike come from different tables or passages of the source.",
  "data": [
    {"compound": "O=C1CN(/N=C/c2ccc([N+](=O)[O-])o2)C(=O)N1", "note": "[Nitrofurantoin]", "values": [
      {"measurement": "QolorAST MIC Manual (MA-MIC)", "setting": "[1]; Patient # 49, urine specimen", "result": 8},
      {"measurement": "QolorAST MIC SVM (SVM-MIC)", "setting": "[1]; Patient # 49, urine specimen", "result": 8},
      {"measurement": "QolorAST MIC Manual (MA-MIC)", "setting": "[1]; Patient # 50, urine specimen", "result": 8},
      {"measurement": "QolorAST MIC SVM (SVM-MIC)", "setting": "[1]; Patient # 50, urine specimen", "result": 8},
      {"measurement": "QolorAST MIC Manual (MA-MIC)", "setting": "[1]; Patient # 51*, urine specimen", "result": "<0.25"},
      {"measurement": "QolorAST MIC SVM (SVM-MIC)", "setting": "[1]; Patient # 51*, urine specimen", "result": "<0.25"},
      {"measurement": "QolorAST MIC Manual (MA-MIC)", "setting": "[1]; Patient # 52, urine specimen", "result": 16},
      {"measurement": "QolorAST MIC SVM (SVM-MIC)", "setting": "[1]; Patient # 52, urine specimen", "result": 16},
      {"measurement": "QolorAST MIC Manual (MA-MIC)", "setting": "[1]; Patient # 53, urine specimen", "result": 4},
      {"measurement": "QolorAST MIC SVM (SVM-MIC)", "setting": "[1]; Patient # 53, urine specimen", "result": 4},
      {"measurement": "QolorAST MIC Manual (MA-MIC)", "setting": "[1]; Patient # 54, urine specimen", "result": 4},
      {"measurement": "QolorAST MIC SVM (SVM-MIC)", "setting": "[1]; Patient # 54, urine specimen", "result": 4},
      {"measurement": "QolorAST MIC Manual (MA-MIC)", "setting": "[1]; Patient # 55, urine specimen", "result": 8},
      {"measurement": "QolorAST MIC SVM (SVM-MIC)", "setting": "[1]; Patient # 55, urine specimen", "result": 8},
      {"measurement": "QolorAST MIC Manual (MA-MIC)", "setting": "[1]; Patient # 56, urine specimen", "result": 8},
      {"measurement": "QolorAST MIC SVM (SVM-MIC)", "setting": "[1]; Patient # 56, urine specimen", "result": 8},
      {"measurement": "QolorAST MIC Manual (MA-MIC)", "setting": "[1]; Patient # 57, urine specimen", "result": 8},
      {"measurement": "QolorAST MIC SVM (SVM-MIC)", "setting": "[1]; Patient # 57, urine specimen", "result": 8},
      {"measurement": "QolorAST MIC Manual (MA-MIC)", "setting": "[1]; Patient # 58, urine specimen", "result": 8},
      {"measurement": "QolorAST MIC SVM (SVM-MIC)", "setting": "[1]; Patient # 58, urine specimen", "result": 8},
      {"measurement": "QolorAST MIC Manual (MA-MIC)", "setting": "[1]; Patient # 59, urine specimen", "result": 16},
      {"measurement": "QolorAST MIC SVM (SVM-MIC)", "setting": "[1]; Patient # 59, urine specimen", "result": 16},
      {"measurement": "QolorAST MIC Manual (MA-MIC)", "setting": "[1]; Patient # 60, urine specimen", "result": 4},
      {"measurement": "QolorAST MIC SVM (SVM-MIC)", "setting": "[1]; Patient # 60, urine specimen", "result": 4},
      {"measurement": "QolorAST MIC Manual (MA-MIC)", "setting": "[1]; Patient # 61, urine specimen", "result": 4},
      {"measurement": "QolorAST MIC SVM (SVM-MIC)", "setting": "[1]; Patient # 61, urine specimen", "result": 4},
      {"measurement": "QolorAST MIC Manual (MA-MIC)", "setting": "[1]; Patient # 62, urine specimen", "result": 6},
      {"measurement": "QolorAST MIC SVM (SVM-MIC)", "setting": "[1]; Patient # 62, urine specimen", "result": 6},
      {"measurement": "QolorAST MIC Manual (MA-MIC)", "setting": "[1]; Patient # 63, urine specimen", "result": 4},
      {"measurement": "QolorAST MIC SVM (SVM-MIC)", "setting": "[1]; Patient # 63, urine specimen", "result": 4},
      {"measurement": "QolorAST MIC Manual (MA-MIC)", "setting": "[1]; Patient # 64, urine specimen", "result": 8},
      {"measurement": "QolorAST MIC SVM (SVM-MIC)", "setting": "[1]; Patient # 64, urine specimen", "result": 8},
      {"measurement": "QolorAST MIC Manual (MA-MIC)", "setting": "[1]; Patient # 65, urine specimen", "result": 8},
      {"measurement": "QolorAST MIC SVM (SVM-MIC)", "setting": "[1]; Patient # 65, urine specimen", "result": 8},
      {"measurement": "QolorAST MIC Manual (MA-MIC)", "setting": "[1]; Patient # 66, urine specimen", "result": 8},
      {"measurement": "QolorAST MIC SVM (SVM-MIC)", "setting": "[1]; Patient # 66, urine specimen", "result": 8},
      {"measurement": "QolorAST MIC Manual (MA-MIC)", "setting": "[1]; Patient # 67*, urine specimen", "result": "<0.25"},
      {"measurement": "QolorAST MIC SVM (SVM-MIC)", "setting": "[1]; Patient # 67*, urine specimen", "result": "<0.25"},
      {"measurement": "QolorAST MIC Manual (MA-MIC)", "setting": "[1]; Patient # 68, urine specimen", "result": 8},
      {"measurement": "QolorAST MIC SVM (SVM-MIC)", "setting": "[1]; Patient # 68, urine specimen", "result": 8},
      {"measurement": "Broth Microdilution MIC (MIC)", "setting": "[2]; Patient # 49, E. coli", "result": 8},
      {"measurement": "Broth Microdilution MIC (MIC)", "setting": "[2]; Patient # 50, E. coli", "result": 8},
      {"measurement": "Broth Microdilution MIC (MIC)", "setting": "[2]; Patient # 51*, E. coli", "result": 16},
      {"measurement": "Broth Microdilution MIC (MIC)", "setting": "[2]; Patient # 52, E. coli", "result": 16},
      {"measurement": "Broth Microdilution MIC (MIC)", "setting": "[2]; Patient # 53, E. coli", "result": 6},
      {"measurement": "Broth Microdilution MIC (MIC)", "setting": "[2]; Patient # 54, E. coli", "result": 4},
      {"measurement": "Broth Microdilution MIC (MIC)", "setting": "[2]; Patient # 55, E. coli", "result": 8},
      {"measurement": "Broth Microdilution MIC (MIC)", "setting": "[2]; Patient # 56, E. coli", "result": 8},
      {"measurement": "Broth Microdilution MIC (MIC)", "setting": "[2]; Patient # 57, E. coli", "result": 8},
      {"measurement": "Broth Microdilution MIC (MIC)", "setting": "[2]; Patient # 58, E. coli", "result": 8},
      {"measurement": "Broth Microdilution MIC (MIC)", "setting": "[2]; Patient # 59, E. coli", "result": 16},
      {"measurement": "Broth Microdilution MIC (MIC)", "setting": "[2]; Patient # 60, E. coli", "result": 16},
      {"measurement": "Broth Microdilution MIC (MIC)", "setting": "[2]; Patient # 61, E. coli", "result": 4},
      {"measurement": "Broth Microdilution MIC (MIC)", "setting": "[2]; Patient # 62, E. coli", "result": 6},
      {"measurement": "Broth Microdilution MIC (MIC)", "setting": "[2]; Patient # 63, E. coli", "result": 4},
      {"measurement": "Broth Microdilution MIC (MIC)", "setting": "[2]; Patient # 64, E. coli", "result": 8},
      {"measurement": "Broth Microdilution MIC (MIC)", "setting": "[2]; Patient # 65, E. coli", "result": 8},
      {"measurement": "Broth Microdilution MIC (MIC)", "setting": "[2]; Patient # 66, E. coli", "result": 8},
      {"measurement": "Broth Microdilution MIC (MIC)", "setting": "[2]; Patient # 67*, E. coli", "result": 2},
      {"measurement": "Broth Microdilution MIC (MIC)", "setting": "[2]; Patient # 68, E. coli", "result": 8}
    ]}
  ]
}
